Experiments:
mushroom tyrosinase = mushroom tyrosinase (Agaricus bisporus, UniProt C7FF04); assay: Diphenolase activity of mushroom tyrosinase (L-DOPA substrate); format: biochemical; settings: for Inhibition type: Lineweaver-Burk plots; for Inhibition type / KIS (inhibitor bonding with enzyme-substrate complex) / K IS (Table 1) / Inhibitory mechanisms: diphenolase; for KIS (inhibitor bonding with enzyme-substrate complex) / K IS (Table 1): L-DOPA; for KIS (inhibitor bonding with enzyme-substrate complex): secondary plot of intercepts; for K IS (Table 1): unit not given; for Inhibitory mechanisms: residual activity vs enzyme concentration
Chain of mushroom tyrosinase (C7FF04 1-392): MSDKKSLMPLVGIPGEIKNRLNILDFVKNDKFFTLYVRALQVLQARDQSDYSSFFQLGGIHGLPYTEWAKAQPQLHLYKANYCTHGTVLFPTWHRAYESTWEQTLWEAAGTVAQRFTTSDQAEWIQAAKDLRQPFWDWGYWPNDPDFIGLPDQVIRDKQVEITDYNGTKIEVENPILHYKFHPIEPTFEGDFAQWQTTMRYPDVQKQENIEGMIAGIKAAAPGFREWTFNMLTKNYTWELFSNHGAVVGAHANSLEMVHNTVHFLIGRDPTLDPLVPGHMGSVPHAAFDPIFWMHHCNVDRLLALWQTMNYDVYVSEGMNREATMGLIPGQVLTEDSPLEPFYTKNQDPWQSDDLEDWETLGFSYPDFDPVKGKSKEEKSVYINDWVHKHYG
Method: L-Tyr and L-DOPA were used as the substrate to test the monophenolase and diphenolase activities of tyrosinase, respectively. The reaction system (3 ml) contained 1.1 mM L-Tyr or 0.5 mM L-DOPA, 25 mM PBS buffer (pH 6.8) and different concentrations of the inhbitors. For monophenolase and diphenolase activities, the final concentration of tyrosinase was 33.3μg/ml and 6μg/ml, respectively. The increased optical density with the oxidation of the substrates at 475 nm (the absorption coefficient was 3700 M^−1cm^−1) within a certain time were measured by DU800 spectrophotometer. […] The Michaelis-Menten constant Km of tyrosinase was determined by Lineweaver-Burk plot with different concentrations of L-DOPA as substrate and the inhibition constants KI and KIS were determined by the secondary plots of the apparent Km/Vm or 1/Vm versus the concentration of the inhibitors. The inhibition mechanism was reflected by the […] with various concentrations of mushroom tyrosinase.

[1] = ABTS free-radical scavenging antioxidant assay; settings: absorbance at 734 nm
Method: ABTS free-radical scavenging assay was used to test the antioxidant capacity of compounds Y1 to Y4. The method can be found in many articles. 7 mM ABTS and 2.45 mM ammonium persulfate were blended and stored in a dark place 16 hours, and then diluted by 80% ethanol to obtain the working solution which gave an absorbance of 0.69 at 734 nm. The working solution and compounds were mixed and allowed to react for ten minutes, and then measured the absorbance at 734 nm (AI) was measured using spectrophotometer. L-ascorbic acid and 80% ethanol was used as a positive and blank control, respectively. The A0 value was the blank absorbance. The antioxidant rate (%) = (A0-AI)/A0 * 100%

tyrosinase = target: T1, tyrosinase (Agaricus bisporus, UniProt C7FF04); assay: Fluorescence quenching of tyrosinase; format: binding, mushroom; settings: 0.3 mg/ml tyrosinase, excitation 280 nm, inhibitor 10 to 70 μM
T1 construct: purchased Sigma Chemical Co. (St. Louis, MO, USA); host or cells: mushroom (natural source)
T1 sequence (C7FF04 1-392 limits assumed): as the sequence (C7FF04 1-392) above
Method: Fluorescence quenching means the decrease of fluorescence intensity between the fluorescent molecules and solute molecules. This method was usually used to study the interaction between conformation of protein molecules and small molecules. Cary Eclipse fluorescence spectrophotometer was used to record the fluorescence intensities with an excitation wavelength of 280 nm and emission slit widths of 5 nm. […] In this study, the inhibitor was added in 0.3 mg/ml tyrosinase solution to detect the fluorescence intensity changes and the final concentrations of inhibitor range from 10 to 70 μM.
Fluorescence quenching can be divided into static quenching and dynamic quenching. Dynamic quenching is a process, which has energy or electron transfer, while the static quenching process will generate complexes without fluorescence. The quenching rate between the fluorescent molecules and quenching agents followed the Stem.Volmer curve equation [43]: F0/F=1+KSV[Q]
In the formula, F0 is the intensity of fluorescence without quenching agent, F is the fluorescence intensity after adding quencher, Ksv (L/mol) represents the relationship of dynamic equilibrium between biological macromolecules and fluorescence quencher molecules after diffusing and colliding, and [Q] is the concentration of quencher. From Fig 4D, the Ksv of Y1, Y2 and Y3 was determined to be 94437, 7160983 and 159186 L/mol, respectively.

SMILES | antityrosinase activity (diphenolase screen) (mushroom tyrosinase; L-DOPA substrate) | antioxidant capacity rank order [1] | Inhibition type (mushroom tyrosinase) | KIS (inhibitor bonding with enzyme-substrate complex) (mushroom tyrosinase) [µM] | K IS (Table 1) (mushroom tyrosinase) | Inhibitory mechanisms (mushroom tyrosinase) | Ksv (Stern-Volmer quenching constant) (tyrosinase) [L/mol]
Oc1cccc(/C=N\Nc2nnc(S)n2/N=C/c2cccc(O)c2)c1 [Compound Y4, 3-((Z)-(2-(4-(((E)-3-hydroxybenzylidene)amino)-5-mercapto-4H-1,2,4-triazol-3-yl)hydrazono)methyl)phenol] | almost do not have antityrosinase activity | Y1 > Y2 > Y3 > Y4 > Vc > AHMZ | – | – | – | – | –
Nn1c(S)nnc1N/N=C\c1cccc(F)c1 [Compound Y1, (Z)-4-amino-5-(2-(3-fluorobenzylidene)hydrazinyl)-4H-1,2,4-triazole-3-thiol] | – | Y1 > Y2 > Y3 > Y4 > Vc > AHMZ | Mixed | 4 | 4 | Reversible | 94437
Nn1c(S)nnc1N/N=C\c1cccc(O)c1 [Compound Y2, (Z)-3-((2-(4-amino-5-mercapto-4H-1,2,4-triazol-3-yl)hydrazono)methyl)phenol] | – | Y1 > Y2 > Y3 > Y4 > Vc > AHMZ | Mixed | 27.8 | 28 | Reversible | –
NNc1nnc(S)n1N [AHMZ, 4-Amino-3-hydrazino-5-mercapto-1,2,4-triazole, reference compound] | – | Y1 > Y2 > Y3 > Y4 > Vc > AHMZ | – | – | – | – | –
Nn1c(S)nnc1N/N=C\c1ccccc1O [Compound Y3, (Z)-2-((2-(4-amino-5-mercapto-4H-1,2,4-triazol-3-yl)hydrazono)methyl)phenol] | – | Y1 > Y2 > Y3 > Y4 > Vc > AHMZ | Mixed | 21.04 | 21.04 | Reversible | 159186
O=C1O[C@H]([C@@H](O)CO)C(O)=C1O [Vc, L-ascorbic acid, reference compound] | – | Y1 > Y2 > Y3 > Y4 > Vc > AHMZ | – | – | – | – | –

Reference: paper PMC4589318, “Synthesis of Triazole Schiff’s Base Derivatives and Their Inhibitory Kinetics on Tyrosinase Activity” (PLoS ONE, 2015)
